Several values for one entry are separate records, joined by “and”; a condition that tells them apart may be missing. Identical values can stand only once. Counter-ions that a name gives are not always drawn.
System: norepinephrin release in the rat prefrontal cortex
Experiment: Microdialysis: norepinephrine release in prefrontal cortex after I.P. administration
Type: in vivo
Settings: for Norepinephrin release, MEAN / Norepinephrin release, individual animals: 3 mg/kg IP; for Norepinephrin release, MEAN: n = 8; for Norepinephrin release, individual animals: per animal R#15,16,21,22,27,28,09,10; for Norepinephrin release, individual animals / NOREPINEPHRIN in dialysate, individual animals: hydrochloride; for NOREPINEPHRIN in dialysate, individual animals: 0.1 mg/kg
Experimental: The aim of the study was to evaluate, using microdialysis, the effects of an intraperitoneal (I.P.) administration in rats of three different doses of SON-117 on dopamine and its metabolites, serotonin and its metabolite (5-HIAA), and norepinephrine levels in prefrontal cortex.
Thirty-two adult male Wistar rats were used for the whole study (4 groups of eight animals planned for the study, Table 1).
Surgery was performed on rats weighing about 300 g at the beginning of the experiments. Rats were anaesthetized with Ketamine (50 mg/kg) & Xylazine (15 mg/kg) by intramuscular administration. The animals were placed in a stereotaxic apparatus in the flat-skull position at a constant setting of −3.3 mm between ear bars and the incisor bar. The animals were treated with a local anesthesic (xylocaine 1%, Astra Zeneca) and an analgesic (Temgesic, from Schering Plough, 0.05 mg/kg, s.c.). A rostrocaudal midline incision was made with a lancet to expose the dorsal skull surface. The “stereotaxic zero” was defined by the Bregma in accordance with Paxinos and Watson's atlas (1986). A hole was drilled in the skull with a drill and the meninges were pierced with a sterile needle to implant a CMA12 guide cannula which later received the dialysis probe.
Coordinates used for implanting guide cannula in prefrontal cortex from Bregma were anteroposterior 3.7 mm, mediolateral 0.8 mm, and dorsoventral −2 mm (top of the probe was at −5 mm). The guide cannula was fixed to the skull with two stainless steel screws (1.88 mm outside diameter) anchored. An application of dental cement was added. A plastic collar allowed each animal to be tethered to a Swivel assembly of the CMA 120 awake animal system. Following surgery, rats were kept in individual cages and allowed to recover for a minimum of 3-5 days before the experimentation. The rats were handled and put in plastic bowl for 10 min at least every day to habituate the animals to their new environment for the dialysis. An I.P. administration with saline was also performed every day.
Dialysis probes (CMA12/3 mm, membrane, 20 kD cut-off, Carnegie Medicine, Stockholm, Sweden), were carefully washed before inserting into the guide cannula. The wash was performed with the artificial cerebrospinal fluid (aCSF) medium (NaCl 147 mM, KCl 2.7 mM, CaCl2 1.2 mM, MgCl2 0.85 mM) at room temperature. The dialysis system was then equilibrated at 20° C. at a perfusion rate of 1 μl/min with a Carnegie pump (CMA100). All catheters (FEP tubing, internal volume of 1.2 μl/10 cm, and tubing adaptors) used for microdialysis were treated in the same conditions.
The probes duly prepared were inserted into the guide cannula and the CMA120 Swivel assembly secured to the animal using a plastic collar. Flow through the dialysis probe with aCSF was maintained at a rate of 1 μl/min during the whole experimentation. The first four fractions (corresponding to 2 hours) were discarded to avoid the effects of parenchymal disturbance and to ensure that an approximate steady-state level was reached. Fractions were then collected over a period of 8.5 h during which time the animals remained quiet. The dialysates were automatically collected with an autosampler (microfraction collector CMA 140, Carnegie Medicin) and stored at −80° C. until analysis. […] Perfusion was then maintained for 7 hours with aCSF. The dialysates (30 μl) were collected into 300 μl vials, transferred into dry ice and then kept frozen (−80° C.) until analysis. Frozen samples were shipped to a partner for analysis. At the end of the microdialysis study, a PBS with colored ink was perfused through the probe in order to visualize the dialyzed area.
Catecholamine assay: Concentrations of dopamine, DOPAC, HVA, 5-HIAA, 5-HT, and norepinephrin were determined for each sample by HPLC coupled with electrochemical detection. […]

[1] = SON-117 0.1 mg/kg I.P., T0-T30 min
[2] = SON-117 0.1 mg/kg I.P., T30-T1 h

Cc1nnc(-c2cc3c(OC[C@@H](O)CN4CCC(c5ccc(Cl)c(Cl)c5)CC4)cccc3o2)o1 [SON-117, (S)-1-(4-(3,4-dichlorophenyl)piperidino)-3-(2-(5-methyl-1,3,4-oxadiazol-2-yl)benzo(b)furan-4-yloxy)-2-propanol hydrochloride]
Norepinephrin release, MEAN (T3 h 30-T4 h): 96.91 % of respective basal | Norepinephrin release, individual animals (T3 h 30-T4 h): 92.25 % of respective basal and 96.09 % of respective basal and 81.54 % of respective basal and 98.50 % of respective basal and 84.78 % of respective basal and 103.12 % of respective basal and 98.12 % of respective basal and 120.87 % of respective basal | Norepinephrin release, MEAN (T3 h-T3 h 30): 98.58 % of respective basal | Norepinephrin release, individual animals (T3 h-T3 h 30): 105.14 % of respective basal and 113.23 % of respective basal and 79.41 % of respective basal and 94.38 % of respective basal and 76.17 % of respective basal and 100.68 % of respective basal and 93.69 % of respective basal and 125.93 % of respective basal | Norepinephrin release, MEAN (T4 h 30-T5 h): 97.28 % of respective basal | Norepinephrin release, individual animals (T4 h 30-T5 h): 58.60 % of respective basal and 125.43 % of respective basal and 101.68 % of respective basal and 87.38 % of respective basal and 80.27 % of respective basal and 104.69 % of respective basal and 112.63 % of respective basal and 107.59 % of respective basal | Norepinephrin release, MEAN (T4 h-T4 h 30): 95.48 % of respective basal | Norepinephrin release, individual animals (T4 h-T4 h 30): 62.13 % of respective basal and 91.42 % of respective basal and 88.64 % of respective basal and 99.58 % of respective basal and 82.26 % of respective basal and 99.52 % of respective basal and 111.02 % of respective basal and 129.30 % of respective basal | Norepinephrin release, MEAN (T5 h 30-T6 h): 96.42 % of respective basal | Norepinephrin release, individual animals (T5 h 30-T6 h): 82.50 % of respective basal and 100.18 % of respective basal and 65.95 % of respective basal and 85.98 % of respective basal and 75.91 % of respective basal and 86.97 % of respective basal and 139.22 % of respective basal and 134.66 % of respective basal | Norepinephrin release, MEAN (T5 h-T5 h 30): 90.72 % of respective basal | Norepinephrin release, individual animals (T5 h-T5 h 30): 87.73 % of respective basal and 105.81 % of respective basal and 60.65 % of respective basal and 89.96 % of respective basal and 73.79 % of respective basal and 96.43 % of respective basal and 137.91 % of respective basal and 93.51 % of respective basal | Norepinephrin release, MEAN (T6 h 30-T7 h): 97.32 % of respective basal | Norepinephrin release, individual animals (T6 h 30-T7 h): 66.13 % of respective basal and 133.14 % of respective basal and 93.99 % of respective basal and 95.87 % of respective basal and 77.85 % of respective basal | Norepinephrin release, MEAN (T6 h-T6 h 30): 98.56 % of respective basal | Norepinephrin release, individual animals (T6 h-T6 h 30): 78.64 % of respective basal and 120.89 % of respective basal and 90.25 % of respective basal and 94.88 % of respective basal and 80.09 % of respective basal and 93.58 % of respective basal and 131.29 % of respective basal | Norepinephrin release, MEAN (T-30 min-T0 (before administration)): 97.42 % of respective basal | Norepinephrin release, MEAN (T-1 h 30-T-1 h (before administration)): 102.02 % of respective basal | Norepinephrin release, MEAN (T-1 h-T-30 min (before administration)): 100.56 % of respective basal | NE post injection levels vs mean pre-injection value (SON-117 0.1 mg/kg I.P.): no statistically significant differences | NOREPINEPHRIN in dialysate, MEAN [1]: 82.85 % of respective basal | NOREPINEPHRIN in dialysate, individual animals [1]: 92.79 % of respective basal and 99.624 % of respective basal and 74.34 % of respective basal and 64.40 % of respective basal and 84.29 % of respective basal and 81.69 % of respective basal | NOREPINEPHRIN in dialysate, MEAN [2]: 95.58 % of respective basal | NOREPINEPHRIN in dialysate, individual animals [2]: 105.21 % of respective basal and 96.78 % of respective basal and 87.94 % of respective basal and 101.10 % of respective basal and 90.37 % of respective basal and 88.40 % of respective basal and 114.24 % of respective basal and 80.61 % of respective basal | NOREPINEPHRIN in dialysate, MEAN (SON-117 0.1 mg/kg I.P., T1 h 30-T2 h): 81.28 % of respective basal

— patent US20250109127A1, “METHODS OF USE OF PHENOXYPROPYLAMINE COMPOUNDS TO TREAT DEPRESSION” (Minerva Neurosciences, Inc., priority 2013, published 2025)
